Measured values from PMC7821958, “Synthesis, in vitro enzyme activity and molecular docking studies of new benzylamine-sulfonamide derivatives as selective MAO-B inhibitors” (Journal of Enzyme Inhibition and Medicinal Chemistry, 2020).
“Also recorded” adds a separate entry of the source.

Assays:
[1] = molecular target: T1, hMAO-A (Homo sapiens, UniProt P21397); test: MAO-A inhibition assay, fluorometric (Amplex Red / horseradish peroxidase-coupled); type: biochemical; conditions: read-out: MAO-A % Inhibition; for inhibition at 1000 µM: 10^−3 M; for inhibition at 100 µM: 10^−4 M
T1 construct: purchased Sigma-Aldrich (Steinheim, Germany)
T1 sequence (P21397 1-527): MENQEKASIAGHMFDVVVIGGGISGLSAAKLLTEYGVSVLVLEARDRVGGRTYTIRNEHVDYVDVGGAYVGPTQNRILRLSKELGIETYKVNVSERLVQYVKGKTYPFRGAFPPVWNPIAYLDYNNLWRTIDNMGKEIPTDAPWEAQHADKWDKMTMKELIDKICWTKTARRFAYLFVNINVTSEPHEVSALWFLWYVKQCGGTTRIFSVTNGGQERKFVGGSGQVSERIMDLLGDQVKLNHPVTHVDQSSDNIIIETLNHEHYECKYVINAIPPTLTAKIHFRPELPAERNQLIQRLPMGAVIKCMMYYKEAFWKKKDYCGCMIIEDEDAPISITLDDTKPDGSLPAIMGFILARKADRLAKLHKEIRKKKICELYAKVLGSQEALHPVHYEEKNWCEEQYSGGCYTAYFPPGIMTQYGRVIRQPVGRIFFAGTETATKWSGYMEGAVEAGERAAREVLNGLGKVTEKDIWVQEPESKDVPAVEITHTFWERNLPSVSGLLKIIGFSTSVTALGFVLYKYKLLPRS
Method: A Biotek Precision XS robotic system (USA) was used for all pipetting operations. Measurements were performed with the use of BioTek-Synergy H1 microplate reader (USA) based upon the fluorescence generated (excitation, 535 nm, emission, 587 nm) over a 30 min period, in which the fluorescence increased linearly.
Enzymatic assay was performed according to recent method pronounced by our research group[17]^,[20–22]. Control, blank and all concentrations of obtained compounds were tested in quadruplicate and inhibition percent was calculated with following equation: % Inhibition=(FCt2 − FCt1) − (FIt2 − FIt1)/FCt2 − FCt1 × 100
FCt2: Fluorescence of a control well measured at t2 time, FCt1: Fluorescence of a control well measured at […]: Fluorescence of an inhibitor well measured at t2 time, FIt1: Fluorescence of an inhibitor well measured at t1 time,
The IC50 values were calculated using a dose-response curve achieved by plotting the percentage inhibition versus the log concentration using GraphPad ‘PRISM’ software (version 5.0).
All the obtained benzylamine-sulphonamide derivatives 4a–4u were investigated for their inhibitory activity against MAO isoforms using a previously described in vitro fluorometric method, which is based on the detection of H2O2 in a horseradish peroxidase-coupled reaction using 10-acetyl-3,7-dihydroxyphenoxazine (Amplex Red reagent)[17]^,[20–22].
The assay was carried out in two steps. […].

[2] = molecular target: T2, hMAO-B (Homo sapiens, UniProt P27338); test: MAO-B inhibition assay, fluorometric (Amplex Red / horseradish peroxidase-coupled); type: biochemical; conditions: for inhibition at 1000 µM: 10^−3 M; for inhibition at 100 µM: 10^−4 M; for inhibition at 10 µM: 10^−5 M; for inhibition at 1 µM: 10^−6 M; for inhibition at 0.1 µM: 10^−7 M; for inhibition at 0.01 µM: 10^−8 M; for inhibition at 0.001 µM: 10^−9 M; for IC50: Table 2, mean ± SD, read-out: IC50 against MAO-B;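 as to all read-outs here: fluorescence read at Ex 535 nm and Em 587 nm over 30 min, linear phase, inhibition relative to uninhibited control wells, IC50 from log concentration–response curves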
T2 construct: purchased Sigma-Aldrich (Steinheim, Germany)
T2 sequence (P27338 1-520): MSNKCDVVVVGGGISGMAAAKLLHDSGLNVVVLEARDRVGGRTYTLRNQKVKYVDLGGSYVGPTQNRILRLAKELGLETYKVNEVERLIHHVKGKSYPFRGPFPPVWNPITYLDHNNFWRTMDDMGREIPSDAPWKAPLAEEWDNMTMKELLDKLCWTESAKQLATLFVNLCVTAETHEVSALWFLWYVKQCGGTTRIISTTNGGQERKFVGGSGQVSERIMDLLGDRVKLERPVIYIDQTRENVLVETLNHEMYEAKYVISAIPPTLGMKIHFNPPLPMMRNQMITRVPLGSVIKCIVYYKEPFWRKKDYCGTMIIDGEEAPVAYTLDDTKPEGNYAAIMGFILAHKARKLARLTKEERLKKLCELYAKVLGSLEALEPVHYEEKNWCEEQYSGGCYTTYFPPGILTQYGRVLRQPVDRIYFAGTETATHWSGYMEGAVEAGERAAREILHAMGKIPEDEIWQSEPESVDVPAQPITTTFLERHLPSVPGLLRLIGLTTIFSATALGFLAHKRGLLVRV
Description: FCt2: Fluorescence of a control well measured at t2 time, FCt1: Fluorescence of a control well measured at t2 time, FIt2: Fluorescence of an inhibitor well measured at t2 time, FIt1: Fluorescence of an inhibitor well measured at t1 time,

[3] = molecular target: T2, hMAO-B; test: Enzyme kinetic studies (Lineweaver-Burk plots, secondary plot); type: biochemical; conditions: for type of inhibition: Lineweaver-Burk plot; for Ki: substrate tyramine, secondary plot, read-out: Ki, steady-state inhibition constant
Method: The same materials were used in the MAO inhibition assay. […] All processes were evaluated in quadruplicate. The results were analysed as Lineweaver–Burk plots by means of Microsoft Office Excel 2013. The […] of the Lineweaver–Burk plots were replotted versus the inhibitor concentration, and the Ki values were determined from the x-axis intercept as −Ki.
Enzyme kinetics studies were performed to determine the mechanism of hMAO-B inhibition by using a procedure similar to that of the MAO inhibition assay. […] In order to estimate the type of inhibition of these compounds, linear Lineweaver-Burk graphs were used. Substrate velocity curves in the absence and presence of compounds 4i and 4t were recorded. […] In each case, the initial velocity measurements were obtained at different substrate (tyramine) concentrations ranging from 20 μM to 0.625 μM.
The type of inhibition can be determined as either reversible or irreversible by using the Lineweaver-Burk plots. The reversible inhibition type can be classified as mixed-type, uncompetitive, competitive, or non-competitive[17]^,[20–22]. […] Competitive inhibition is seen if the lines intersect on the y-axis, and the slopes and x-intercepts are different. On the contrary, non-competitive inhibition has the opposite result: the plotted lines have the same x-intercept but there are diverse slopes and y-intercepts.

[4] = Cytotoxicity MTT assay; type: cell-based, mouse; conditions: mouse, NIH/3T3 mouse embryonic fibroblast cells, read-out: IC50 NIH/3T3 cell line
Method: (§1) The NIH/3T3 mouse embryonic fibroblast cell line (ATCC®CRL-1658 ™, London, UK) was used for cytotoxicity assays. The incubation period of NIH/3T3 cells was based on the supplier's recommendation. NIH/3T3 cells were seeded at 1 × 10^4 cells into each well of 96-well plates. MTT assay was carried out in accordance with the standards previously described manner[23]^,[24]. The compounds were tested between 1 and 0.000316 mM concentrations.

[5] = system: NIH/3T3 mouse embryonic fibroblast cell line; test: Cytotoxicity MTT assay; type: cell-based; conditions: NIH3T3 cells
Method: as §1

[6] = system: MAO-B; set-up: method as in PMID 27028260; conditions: read-out: IC50 against MAO-B; cited from earlier work

NS(=O)(=O)c1ccc(N(Cc2ccccc2)C(=O)CSc2nc3cc(Cl)ccc3s2)cc1 [Compound 4i, N-Benzyl-2-((5-chlorobenzothiazol-2-yl)thio)-N-(4-sulfamoylphenyl)acetamide]
inhibition at 1000 µM [1]: 56.3 ± 0.996%
inhibition at 100 µM [1]: 40.5 ± 0.782%
melting point: 114 to 116 °C
inhibition at 1000 µM [2]: 94.9 ± 1.41%
inhibition at 100 µM [2]: 91.8 ± 1.26%
inhibition at 10 µM [2]: 78.6 ± 1.11%
inhibition at 1 µM [2]: 72.5 ± 1.11%
inhibition at 0.1 µM [2]: 65.2 ± 0.985%
inhibition at 0.01 µM [2]: 46.5 ± 0.892%
inhibition at 0.001 µM [2]: 24.5 ± 0.627%
IC50 [2]: 0.041 ± 0.001 µM
type of inhibition [3]: reversible and non-competitive
Ki [3]: 0.036 µM
IC50 [4]: > 1000 µM
cytotoxicity (in words) [5]: non-toxic; also recorded: non-cytotoxic at their effective concentrations

Cc1ccc(CN(C(=O)CSc2nc3cc(Cl)ccc3s2)c2ccc(S(N)(=O)=O)cc2)cc1 [Compound 4t, 2-((5-Chlorobenzothiazol-2-yl)thio)-N-(4-methylbenzyl)-N-(4-sulfamoylphenyl)acetamide]
inhibition at 1000 µM [1]: 52.6 ± 0.987%
inhibition at 100 µM [1]: 38.3 ± 0.503%
melting point: 109 to 111 °C
inhibition at 1000 µM [2]: 92.6 ± 1.13%
inhibition at 100 µM [2]: 88.6 ± 1.2%
inhibition at 10 µM [2]: 80.5 ± 1.16%
inhibition at 1 µM [2]: 74.7 ± 1.01%
inhibition at 0.1 µM [2]: 60.8 ± 1.16%
inhibition at 0.01 µM [2]: 36.1 ± 0.862%
inhibition at 0.001 µM [2]: 21 ± 0.594%
IC50 [2]: 0.065 ± 0.002 µM
type of inhibition [3]: reversible and non-competitive
Ki [3]: 0.055 µM
IC50 [4]: > 1000 µM
cytotoxicity (in words) [5]: non-toxic; also recorded: non-cytotoxic at their effective concentrations

O=C(CSc1nc2cc(Cl)ccc2s1)N(Cc1cccc([N+](=O)[O-])c1)c1ccc(F)cc1 [BB-4h, 2-((5-chlorobenzothiazol-2-yl)thio)-N-(4-fluorophenyl)-N-(3-nitrobenzyl)acetamide]
IC50 [6]: 2.95 ± 0.09 µM
